The source made the active and inactive calls. Where only a bound is given, the exact number is not on record here.

The source of these data is ChEMBL document CHEMBL1201862, “PubChem BioAssay data set” (2004).

Test [1] concerns the target T1, Rac GTPase-activating protein 1 (Homo sapiens, UniProt Q9H0H5).
T1 sequence (Q9H0H5 whole entry): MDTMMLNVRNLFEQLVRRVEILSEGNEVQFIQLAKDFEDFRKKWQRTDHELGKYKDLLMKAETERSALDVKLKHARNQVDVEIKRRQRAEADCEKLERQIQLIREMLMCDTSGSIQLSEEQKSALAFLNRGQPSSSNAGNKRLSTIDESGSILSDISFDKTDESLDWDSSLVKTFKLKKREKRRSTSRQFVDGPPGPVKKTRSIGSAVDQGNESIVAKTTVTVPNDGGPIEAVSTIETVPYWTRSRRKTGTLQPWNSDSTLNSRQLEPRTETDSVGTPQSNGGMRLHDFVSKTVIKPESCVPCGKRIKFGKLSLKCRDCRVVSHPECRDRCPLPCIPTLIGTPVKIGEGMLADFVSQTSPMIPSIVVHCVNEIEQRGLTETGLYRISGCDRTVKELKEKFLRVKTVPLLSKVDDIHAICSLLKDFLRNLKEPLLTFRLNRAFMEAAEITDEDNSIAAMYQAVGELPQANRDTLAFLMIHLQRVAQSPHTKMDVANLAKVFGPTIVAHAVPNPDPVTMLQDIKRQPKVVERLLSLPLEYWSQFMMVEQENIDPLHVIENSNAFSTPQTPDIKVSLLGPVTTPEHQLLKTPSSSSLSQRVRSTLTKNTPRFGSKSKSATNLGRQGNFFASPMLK
The experiment in a line: MgcRacGAP GTPase-activating activity inhibitors, confirmation, biochemical, ADP Hunter fluorescence, primary and confirmatory (AID 624330). Type of test: functional.

Test [2] is described as follows: Luminescence Cell-Based Dose Retest to Confirm Inhibitors of Cancer Stem Cells. [Related pubchem assays (depositor defined):AID2717, AID2721]. Particulars: Homo sapiens. Type of test: functional.
The next test concerns the target Cytochrome P450 2C9 (Homo sapiens, UniProt P11712).
For a further test, the system named is H4. The experiment in a line: Luminescence Cell-Based Dose Response HTS to Identify Activators of 5'UTR Stem-Loop Driven Prion Protein mRNA Translation in H4 Neuroglioblastoma Cells. [Related pubchem assays: 1829 (Project Summary), 1814 (Primary HTS)]. Type of test: functional. Particulars: Homo sapiens.
The test system of another test is Streptococcus. The experiment in a line: Group A Streptococcus viability loss, dose response, counter-screen for streptokinase expression inhibitor project, luminescence, BacTiterGlo (AID 1915).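 Note: potency for reduction of bacterial viability or growth.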 The format is functional, organism-based. In general terms: A counterscreen serves to expose hits that act by an unwanted route or on another target.
Test [3] deals with Streptococcus sp. 'group A'. The experiment in a line: growth inhibition of control SK(-) GAS strain, dose response, counter-screen for streptokinase expression inhibitor project, luminescence, kanamycin, BacTiterGlo, confirmation (AID 1900). The format is functional, organism-based.
The nature of test [4]: Luminescence Cell-Based Dose Response HTS to Identify Activators of Luciferase Translation or Activity in H4 […] Cells. [Related pubchem assays: 1829 (Project Summary), 1814 (Primary HTS)]. Type of test: functional.

Sequence of Cytochrome P450 2C9 (P11712 whole entry): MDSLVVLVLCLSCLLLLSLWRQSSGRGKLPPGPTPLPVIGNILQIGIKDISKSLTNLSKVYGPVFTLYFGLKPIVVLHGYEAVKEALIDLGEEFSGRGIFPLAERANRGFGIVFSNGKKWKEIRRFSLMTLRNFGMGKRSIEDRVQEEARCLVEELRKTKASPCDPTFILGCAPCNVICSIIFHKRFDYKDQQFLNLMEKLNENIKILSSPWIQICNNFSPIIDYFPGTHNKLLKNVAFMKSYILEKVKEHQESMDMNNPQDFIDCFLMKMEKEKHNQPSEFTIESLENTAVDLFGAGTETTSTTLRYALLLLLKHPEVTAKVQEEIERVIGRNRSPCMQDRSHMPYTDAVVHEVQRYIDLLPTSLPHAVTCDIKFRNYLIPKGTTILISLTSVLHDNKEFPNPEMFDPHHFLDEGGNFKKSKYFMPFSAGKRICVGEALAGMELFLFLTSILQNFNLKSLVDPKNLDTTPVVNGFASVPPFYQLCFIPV

As usually defined, the IC50 is the concentration that inhibits the measured activity by half. Regarding `OCCNCCSc1nc(C2CCCCC2)n(-c2ccccc2Cl)n1`, the IC50 in test [1] was 120 µM (active). Consider `C=CCNCC(O)COc1ccc(C(C)=O)cc1OC` (stereo not given), for which the half-inhibitory concentration (IC50) in test [1] is 131 µM (active). In general, AC50 refers to the midpoint of the concentration-response curve, whichever way the signal moves. In the case of `O=C(NC(=S)Nc1cccc(Cl)c1N1CCCCC1)c1cccs1`, the concentration at half-maximal activity (AC50) in test [2] is 2.08 µM (active).

In the case of `COc1cc(/C=N\N=C2/SC(CC(=O)O)C(=O)N2c2ccc(O)cc2)ccc1O` (stereo not given), the IC50 in test [1] is 78.1 µM (active). Take `O=C(O)c1nnsc1-c1ccc(-c2snnc2C(=O)O)cc1`: the AC50 at Cytochrome P450 2C9 was 7.94 µM (inconclusive). Same read-out and setting: for `Cc1nc(SCC(=O)c2ccc(F)cc2)c([N+](=O)[O-])[nH]1` the value was 20 µM (inconclusive). The EC50 is the midpoint of the concentration-response curve. Turning to `CCCCNc1ncnc2c1cnn2-c1ccccc1`, the EC50 in the test with H4 is 27.1 µM (active).

In the case of `Cn1c(=O)[nH]c(NCCc2ccc(O)cc2)c([N+](=O)[O-])c1=O`, in test [1], the IC50 was 219 µM (active). For the molecule `O=C(Nc1ccc(O)c(-c2nc3ccccc3o2)c1)C1(c2ccc(Br)cc2)CCCC1`, the AC50 in test [2] is > 195 µM (inactive). The same measure, in the same setting: for `Cc1c(C)n(CCc2ccccc2)c2ncnc(NCCCN(C)C)c12` the value was 3.51 µM (active). On to `CC[C@H]1OC(=O)[C@H](C)[C@@H](O[C@H]2C[C@@](C)(OC)[C@@H](O)[C@H](C)O2)[C@H](C)[C@@H](O[C@@H]2O[C@H](C)C[C@H](N(C)C)[C@H]2O)[C@](C)(O)C[C@@H](C)C(=NOCOCCOC)[C@H](C)[C@@H](O)[C@]1(C)O`, for which the EC50 (in the test with Streptococcus; in test [3]) was < 0.06 µM (active) throughout.

Consider `O=C(O)c1cc(N/N=C/c2c(O)ccc3ccccc23)ccc1Cl`, for which the 50% inhibitory concentration (IC50) in test [1] is 35.7 µM (active). As for `O=C(NC(=S)Nc1ccc(O)cc1)C1CCCC1`, in test [1], the IC50 is 29.6 µM (active). As for `COc1ccc(NC(=O)CSc2nc(O)cc(=O)n2-c2ccccc2)cc1`, the EC50 in the test on Streptococcus was 26.1 µM (active); in test [3], 23.1 µM (active). As for `Oc1c2c(nc3cc(-c4ccccc4Cl)nn13)CCS2`, the concentration giving a half-maximal response (EC50) in test [4] was 2.34 µM (active); with H4 it was 21.7 µM (active). For the molecule `O=C(O)C1CSC(c2ccco2)N1` (stereo not given), in test [1], the IC50 is 70.6 µM (active).

`CN1CCN(c2ccc(NC(=O)c3ccc(C#N)cc3F)cc2Cl)CC1`: in test [2], the AC50 is 11.9 µM (active). With `COc1cc2c(cc1N)-c1ccc(N)cc1C2=O`, the IC50 in test [1] was 12.3 µM (active). With `CC(=O)Oc1ccc(C#C/C=C2\c3ccccc3C(=O)N2c2ccccc2)cc1`, the AC50 in test [2] is 2.25 µM (active). For the molecule `COc1cccc2[nH]c(C(=O)NN)c(N)c12`, in test [1], the half-inhibitory concentration (IC50) was 99.4 µM (active).

`CCN(CC)S(=O)(=O)c1ccc(C)c(NC(=O)CN2CCN(Cc3ccccc3)CC2)c1`: the half-inhibitory concentration (IC50) in test [1] was 84.8 µM (active). In the case of `Cc1sc2ncnc(N/N=C/c3ccc(O)cc3)c2c1C`, in test [1], the IC50 is 37.6 µM (active). In the case of `CC1(C)CCC[C@]2(C)[C@H]3Cc4cc(O)ccc4O[C@]3(C)CC[C@@H]12`, the AC50 in test [2] is 4.75 µM (active). Consider `CC/C(=N\O)c1ccc(O)c(OC)c1`, for which, in test [1], the IC50 is 45.2 µM (active). As for `COc1ccc2c(c1OC)C(=O)N1c3ccccc3SC21` (stereo not given), the EC50 in test [4] is 0.124 µM (active); with H4, 0.179 µM (active).

For `Cc1ccc(C(=O)CSC2=C(C#N)C(c3ccco3)C3=C(O)CC(C)(C)CC3=N2)cc1` (stereo not given), the AC50 in test [2] is 2.49 µM (active).
